This is an account of results in patent US20090175905A1, “TRANSFECTION REAGENT AND METHOD FOR ENHANCING TRANSFECTION EFFICIENCY” (National Taiwan University of Science and Technology, priority 2008, published 2009).

SMILES strings stand for the structures.

In series [1] the test system is CHO cells. Nature of the series: In vitro transfection of CHO cells with DNA-PEI plus disaccharides, GFP by flow cytometer. It is filed as cell-based, Chinese hamster. The note with it: PEI to DNA charge ratio 9:1. The source says:
In the following experiments, a polyethyleneimine (PEI)-based vector is used to perform cell transfection. Further, various disaccharides are incorporated into the transfection reagent containing DNA and the vector, and the effects of disaccharides on cell transfection are observed.
(§1) FIG. 6 presents the effects of disaccharides on the transfection efficiency of in vitro cultured CHO cells that are transfected with transfection reagents containing PEI and different disaccharides. The x-axis in FIG. 6 represents the concentrations of different disaccharide in the transfection reagent, and the y-axis represents the GFP expression percentage of the transfected CHO cells detected by a flow cytometer. The GFP expression percentage of the transfected CHO cells is used as an indicator of transfection efficiency. […] The effect of disaccharides in the transfection reagent on transfection efficiency is then analyzed. […] In other words, the cell transfection efficiency is enhanced.

For the next series, the system named is COS-7 cells. Nature of the series: DNA-PEI transfection with trehalose, GFP expression percentage, COS-7. It is filed as cell-based. Conditions: 180 mM trehalose.
Text: as §1
(§2) FIGS. 7A and & 7B show the optimal trehalose concentrations for enhancing the transfection expression mediated by DNA-PEI complexes in different cell lines. The x-axis in FIGS. 7A and 7B […] represents the concentrations of trehalose in the transfection reagent, and the y-axis represents the GFP expression percentage of the cells as an indicator of transfection efficiency The transfection procedures in these experiments of different cell lines are identical to those described previously for CHO cells in experiment 5. […] Moreover, the extents of enhancement on the transfection efficiency depend on the cell lines. […]

A further series relates to 293 cells. The series can be described thus: DNA-PEI transfection with trehalose, GFP expression percentage, 293. The format is cell-based. Conditions: 180 mM trehalose.
Text: as §1, §2

A further series deals with B16F10. Nature of the series: DNA-PEI transfection with trehalose, GFP expression percentage, B16F10. The note with it: 20 mM trehalose. It is filed as cell-based.
Text: as §1, §2

In the next series the test system is KB. The series can be described thus: DNA-PEI transfection with trehalose, GFP expression percentage, KB. It is filed as cell-based. Conditions: 20 mM trehalose.
Text: as §1, §2

The subject of series [2] is CHO cells. The series can be described thus: MTT cellular viability of CHO cells transfected with DNA-PEI complexes plus trehalose. The format is cell-based, Chinese hamster. The note with it: PEI to DNA charge ratio 9:1; nontransfected CHO cells = 100%. The source says:
The x-axis in FIG. 5 represents different trehalose concentrations and the y-axis represents cellular viability analyzed by the MTT assay. In the experiments, the PEI to DNA charge ratio in the transfection reagent is maintained at 9:1, and the viability of nontransfected CHO cells is set at 100%. […] In other words, the incorporation of trehalose mitigates the toxic effect of the transfection reagent.

Another series has as its system mouse muscles. Nature of the series: In vivo transfection of muscles by direct intramuscular injection of naked plasmid plus disaccharides, luciferase luminescence. Here is the method:
The following experiments are conducted using naked nucleic acid delivery system for directly transfecting plasmid DNA into the cells of animals, and additional viral or non-viral vector is precluded. The transfection reagent is incorporated with various concentrations of disaccharides as an enhancer, and the effects of disaccharides in the naked nucleic acid delivery system on the cell transfection are observed.
FIG. 9 presents the effects of various disaccharides on the transgene expression of mouse muscles after direct intramuscular injection of naked plasmid. The transfection procedures in these experiments are identical to those described previously in experiment 3. The major differences between the two experiments are the vector applied and the method of transfection as well as the administration route into the body of the […]. The x-axis in FIG. 9 represents the types of disaccharides, and the y-axis represents the luminescent intensity, measured by a luminometer and expressed as relative light unit (RLU) per mg of muscular tissue protein, wherein the luminescent intensity is used as an indicator to evaluate the transfection efficiency.
FIG. 10 presents the effects of trehalose concentrations on the transgene expression of mouse muscles after direct intramuscular injection of naked plasmid. The x-axis in FIG. 10 represents the concentrations of trehalose in the transfection reagent, and the y-axis represents the luminescent intensity, measured by a luminometer and expressed as relative light unit (RLU) per mg of muscular tissue protein. The luminescent intensity is used as an indicator to evaluate transfection efficiency.
[…] presents the effects of gene dosage on the transgene expression of mouse muscles in the presence of trehalose after direct intramuscular injection of naked plasmid. The x-axis in FIG. 11 represents the amount of DNA plasmid, and the y-axis represents the luminescent intensity, measured by a luminometer and expressed as relative light unit (RLU) per mg of muscular tissue protein, wherein the luminescent intensity is used as an indicator to evaluate the transfection efficiency.
FIG. 12 presents the effects of the trehalose on the durations of transgene expression of mouse muscles after direct intramuscular injection of naked plasmid. The x-axis in FIG. 12 represents the days after the intramuscular injection, and the y-axis represents the luminescent intensity, measured by a luminometer and expressed as relative light unit (RLU) per mg of muscular tissue protein, wherein the luminescent intensity is used as an indicator to evaluate the transfection efficiency of gWiz-luciferase plasmid. […] In other words, trehalose might extend the durations of nucleic acid remaining inside the cells, and therefore prolonged the durations of transgene expression.

Series [3] relates to CHO cells. Nature of the series: MTT cellular viability of CHO cells transfected with lipid-based carriers plus disaccharides. Conditions: DOTAP, DOTAP/Chol, DOTAP/DOPE or LPD vector; nontransfected CHO cells = 100%.
Text: FIG. 5 presents the effects of disaccharides on the cellular cytotoxicity of the in vitro cultured CHO cells transfected with transfection reagents containing lipid-based carriers.

For `OC[C@H]1O[C@H](O[C@H]2O[C@H](CO)[C@@H](O)[C@H](O)[C@H]2O)[C@H](O)[C@@H](O)[C@@H]1O` [trehalose], in the series on CHO cells [1], the “effect on GFP expression percentage (transfection efficiency)” value is given as “significantly increases the GFP expression percentage”. Also, the GFP expression percentage entry in the series with CHO cells [1] (180 mM trehalose) is recorded as “about 20%”. The “GFP expression percentage relative to absence of disaccharides” value with CHO cells [1] (180 mM trehalose) was “about one fold higher”. Also, the figures for the “enhancement of percentage of GFP expressed cells” value with COS-7 cells and with 293 cells were 37% and 32%, respectively. The “enhancement of percentage of GFP positive cells” value was approximately 42% with B16F10 and approximately 13% in the series on KB. In addition, the figures for the “cellular viability analyzed by the MTT assay” value in the series on CHO cells [2] and with CHO cells [3] were “increases the cellular viability” and “improve the cellular viabilities”, respectively. The “duration of transgene expression (muscle luminescence over days after injection)” value with mouse muscles (naked gWiz-luciferase plasmid) is listed as “higher luminescence intensities for a longer period of time”. Moreover, in the series on mouse muscles (naked plasmid, 10 mM disaccharide), the “luminescent intensity (RLU per mg of muscular tissue protein) versus control group without disaccharides” value was “higher luminescent intensity”. In addition, in the series on mouse muscles (naked plasmid, 10 mM trehalose), the “transfection efficiency versus control group without trehalose at the same amount of plasmid DNA” value was “significantly higher”. In addition, the “effect of trehalose concentration on transfection efficiency (muscle luminescent intensity)” value with mouse muscles (naked plasmid, trehalose between about 10 mM to 12.5 mM) was “increases significantly”.
